Data taken from article PMC11435625, “In Vitro Hepatic Clearance Evaluations of Per- and Polyfluoroalkyl Substances (PFAS) across Multiple Structural Categories” (Toxics, 2024).
Where two headings read alike, the source gives them in different places.

Legend:
[1] = test system: pooled primary human hepatocyte suspensions; assay: Hepatic clearance assay (substrate depletion, LC-MS); conditions: for In Vitro Clint: Table 3, pooled human hepatocyte suspension, 0 = no significant clearance
Procedure, shortened: (§1)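 Substrate depletion at 1 μM PFAS in pooled cryopreserved human hepatocytes (~0.5 × 10^6 viable cells/mL, 50-donor pool), 37 °C with shaking, sampled 0–240 min in triplicate. Quantified by LC-MS in negative ion mode against matrix-matched calibration; media-only or heat-inactivated cells as nonmetabolic-loss controls.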

[2] = IVIVE: steady-state concentration (Css), generic HTTK model; design: species or system human; conditions: for Css: human steady-state concentration, 1 mg/kg/day exposure rate, loss of parent compound only; for Css (mg/L) / Css (uM): Assuming 1 mg/kg/day dose rate, BW 70 kg; for CLhep: QL 1500000 uL/min; for Fub: fub=fup/(B:P), Fub set to 1 if needed; for CLint: scaled to whole liver: HPGL 110 mill cells/g, Vl 1596 g
Procedure, shortened: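 Human Css estimated by IVIVE: plasma protein binding converted to blood fraction unbound via blood-to-plasma partitioning, and experimental Clint scaled with liver scalars to whole liver clearance. AEDs then derived by reverse dosimetry from Css and PFAS in vitro POD, defined as fifth-percentile AC50.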

[3] = Administered equivalent dose (AED) by reverse dosimetry; design: species or system human; conditions: from Css and AC50 POD by reverse dosimetry
Protocol: IVIVE was performed as previously described to calculate human steady-state concentrations (Css). Briefly, experimental plasma protein binding data presented elsewhere were transformed to fraction unbound in blood using blood-to-plasma partitioning values. Experimental Clint values generated here are used in conjunction with relevant liver scalars to scale up to estimate whole liver clearance. […] Once Css values were established, these were used with the PFAS-specific in vitro POD data to calculate the administered equivalent doses (AEDs) using reverse dosimetry. […] The fifth-percentile AC50 value was used to define the in vitro POD. All relevant inputs, scalars, and calculations are provided in Supplementary Information, as indicated in the results.

[4] = design: method as in PMID 26085347; conditions: simulation; cited from earlier work
[5] = design: method as in PMID 36851038; conditions: dynamic one-compartment model; cited from earlier work
plasma protein = conditions: cited from earlier work; for fup (fraction unbound in plasma): human plasma
[6] = Hepatic clearance assay (substrate depletion, LC-MS); conditions: both, human, hepatocytes
Procedure, shortened: as §1

[7] = design: method as in PMID 32648786; conditions: human; cited from earlier work
[8] = test system: pooled primary human hepatocyte suspensions; assay: Bayesian (MCMC, invitroTKstats) analysis of hepatic clearance data; conditions: for metabolic clearance call, experimental and Bayesian analyses in agreement: both analyses agreed
Source text: (§2) Markov Chain Monte Carlo was employed in a Bayesian analysis to estimate uncertainty of the hepatic clearance point measures as previously described, but with some modifications [10]. Briefly, after organizing PFAS-level data into a single file, the relationship between the relevant measurement process parameters was described in a graphic model in JAGS language [13] interfaced through R. For hepatic clearance data, the model describes the PFAS-specific mass spectrometric response factor between analyte peak ratio (to internal standard) and chemical concentration. […] The assumed prior for whether the chemical degraded abiotically in vitro followed a Bernoulli distribution with a 5% chance of abiotic degradation. Separate biotic and abiotic components for chemical elimination were estimated, each with a slope following an assumed uniform prior distribution bounded between the zero and the -log (limit of quantitation/Ctest). In scenarios where an external calibration without internal standard was used, the response factor was calculated using the analyte peak alone, introducing additional uncertainty due to the inability to normalize for recovery issues. The model was analyzed jointly by JAGS using five Markov chains. Convergence was identified by requiring the five chains to be consistent, as indicated by the potential scale reduction factor [14] being less than 1.1. The analysis was performed using EPA-developed R package invitroTKstats, available upon request.

[9] = test system: pooled primary human hepatocyte suspensions; conditions: both, hepatocytes, 1 μM
Source text: as §2

[10] = unadjusted hepatic intrinsic clearance, pooled primary human hepatocyte suspensions, Table S4, in µL/min/10^6 cells
[11] = CLint value carried into HTTK/IVIVE, in µL/min/10^6 cells
[12] = pooled primary human hepatocyte suspensions, in µL/min/10^6 cells

SMILES	Css [2] [µM]	AED [3] [mg/kg/day]	fup (fraction unbound in plasma) (plasma protein)	hepatocyte CLint at 1 μM [6] [µL/min/1e6 cells]	In Vitro Clint ([1]; 1 μM) [μL/min/million cells]	Unadj Clint [1, 10]	Css (mg/L) [2] [mg/L]	Css (uM) [2] [µM]	CLhep [2] [L/h]	Fub [2]	CLint [2] [µL/min]	Unadj Clint ([1]; both, human, hepatocytes, 1 μM)	Clint.1.Med [9]	other results
O=S(=O)(O)C(F)(F)C(F)(F)C(F)(F)C(F)(F)C(F)(F)C(F)(F)C(F)(F)C(F)(F)F [PFOS, Perfluorooctanesulfonic acid]	98.52	0.08	0.0049	–	–	–	–	–	–	–	–	–	–	Unadj Clint ([1]; unadjusted hepatic intrinsic clearance, pooled primary human hepatocyte suspensions, Table S4, listed as Perfluorooctanesulfonic acid, in µL/min/10^6 cells): 1.38; time to reach steady state [4]: 6.6 years; time to reach steady-state values [5]: 30 years
O=C(O)C(F)(F)C(F)(F)C(F)(F)C(F)(F)C(F)(F)C(F)(F)C(F)(F)F [PFOA, Perfluorooctanoic acid]	582.99	0.01	0.0010	–	–	–	–	–	–	–	–	–	–	Unadj Clint ([1]; unadjusted hepatic intrinsic clearance, pooled primary human hepatocyte suspensions, Table S4, listed as Perfluorooctanoic acid, in µL/min/10^6 cells): 1.49; time to reach steady state [4]: 3.5 years
O=S(=O)(O)C(F)(F)C(F)(F)C(F)(F)C(F)(F)F [PFBS, Perfluorobutanesulfonic acid]	7.51	0.83	0.0128	4.75	4.75	4.75	–	–	–	–	–	–	–	estimated half life [7]: as low as one month
O=C(O)CCC(F)(F)C(F)(F)C(F)(F)C(F)(F)C(F)(F)C(F)(F)C(F)(F)F [7:3 FTCA, 3-Perfluoroheptylpropanoic acid]	4.99	0.19	0.0051	15.7	15.7	19.74	2.20	4.99	1.272	0.009273	2319148	–	–	CLint for HTTK [1, 11]: 13.21; in vitro CLint exp assay [1, 12]: 13.21; Clint.1.Med ([8]; Level-4 Bayesian estimate, posterior median, Clint.1 series (Clint.10 all NA)): 15.6; metabolic clearance call, experimental and Bayesian analyses in agreement [8]: metabolized
CCNS(=O)(=O)C(F)(F)C(F)(F)C(F)(F)C(F)(F)C(F)(F)C(F)(F)C(F)(F)C(F)(F)F [NEtFOSA, N-Ethylperfluorooctanesulfonamide]	–	–	–	> 15	–	–	–	–	–	–	–	24.92	164	–
O=C(O)CCC(F)(F)C(F)(F)C(F)(F)C(F)(F)C(F)(F)F [5:3 FTCA, 2H,2H,3H,3H-Perfluorooctanoic acid]	6.18	0.99	0.0059	11.8	11.84	11.84	–	–	–	–	–	–	–	metabolic clearance call, experimental and Bayesian analyses in agreement [8]: metabolized
O=C(O)CCC(F)(C(F)(F)F)C(F)(F)F	–	–	–	–	–	–	2.52	10.43	0.000	0.1738	0	0.00	0	CLint for HTTK ([1]; both, human, hepatocytes, 1 μM): 0; in vitro CLint exp assay ([1]; both, human, hepatocytes, 1 μM): 0; Mean fu (plasma protein; plasma): 0.0956
O=C(O)C=CC(F)(C(F)(F)F)C(F)(F)F [3-(Perfluoroisopropyl)-2-propenoic acid]	–	–	–	–	–	1.23	2.41	10.03	0.000	0.1824	0	–	0	CLint for HTTK [1, 11]: 0; in vitro CLint exp assay [1, 12]: 0; Mean fu (plasma protein; fraction unbound in plasma, input for IVIVE calculations): 0.1003
NS(=O)(=O)C(F)(F)C(F)(F)C(F)(F)C(F)(F)C(F)(F)C(F)(F)C(F)(F)C(F)(F)F [PFOSA, Perfluorooctanesulfonamide]	–	–	–	> 15	–	–	–	–	–	–	–	22.84	0	–
